From ChEMBL document CHEMBL1125712 (J Med Chem, 1991)
Activity calls are given as the source filed them. The rule behind the calls is not given here.

Legend:
[1] = target: Aldo-keto reductase family 1 member B1 (Homo sapiens, UniProt P15121); assay: Inhibition of aldose reductase (aldo-keto reductase, AKR1B1) isolated from human placenta.
Rattus norvegicus [2] = species: Rattus norvegicus; assay: animal or person; assay type: functional
Description: Compound was evaluated in vivo for the inhibition of sorbitol accumulation administered orally at a dose of 25 mg/kg.

[3] = system: aldose reductase (Rattus norvegicus); assay: In vivo inhibition of sorbitol accumulation in the rat following 10 mg/kg p.o. administration.; settings: at 10 mg/kg
[4] = system: aldose reductase (Rattus norvegicus); assay: In vivo inhibition of sorbitol accumulation in the rat following 10 mg/kg p.o. administration; Not significant.; settings: at 10 mg/kg
Rattus norvegicus [5] = species: Rattus norvegicus; settings: at 25 mg/kg

Row | SMILES | IC50 [1] [nM] | also measured
1 | O=C(O)Cc1nn(Cc2nc3cc(Cl)cc(C(F)(F)F)c3s2)c(=O)c2ccccc12 | 620 | 
2 | CC(c1nc2ccccc2s1)n1nc(CC(=O)O)c2ccccc2c1=O (stereo unspecified) | 43 | inhibition in vivo at 25 mg/kg (Rattus norvegicus [2]; dose 25 mg/kg, route oral): 50%
3 | O=C(O)Cc1nn(Cc2nc3cccc(Br)c3s2)c(=O)c2ccccc12 | 15 | inhibition [3]: 71%
4 | O=C(O)Cc1nn(Cc2nc3c(F)cccc3s2)c(=O)c2ccccc12 | 2 | inhibition [4]: inactive
5 | O=C(O)Cc1nn(Cc2nc3c(Cl)c(Cl)ccc3s2)c(=O)c2ccccc12 | 100 | 
6 | Cc1cc(C)c2sc(Cn3nc(CC(=O)O)c4ccccc4c3=O)nc2c1 | 5.9 | inhibition in vivo at 25 mg/kg (Rattus norvegicus [2]; po): 39%
7 | O=C(O)Cc1nn(CSc2nc3ccccc3s2)c(=O)c2ccccc12 | 81 | 
8 | O=C(O)Cc1nn(Cc2nc3cc(O)cc(O)c3s2)c(=O)c2ccccc12 | 87 | 
9 | CC(C)c1ccc2nc(Cn3nc(CC(=O)O)c4ccccc4c3=O)sc2c1 | 3200 | 
10 | COc1ccc2sc(Cn3nc(CC(=O)O)c4ccccc4c3=O)nc2c1 | 230 | inhibition (Rattus norvegicus [5]): inactive
11 | O=C(O)Cc1nn(Cc2nc3c(F)ccc(F)c3s2)c(=O)c2ccccc12 | 5 | inhibition [3]: 73%
12 | O=C1NC(=O)C2(CN(Cc3ccc(F)cc3)c3ccc(F)cc32)N1 (stereo unspecified) | 140 | 
13 | O=C(O)Cc1nn(Cc2nc3cc(C(F)(F)F)cc(C(F)(F)F)c3s2)c(=O)c2ccccc12 | 1400 | inhibition [4]: inactive
14 | CC(c1nc2cc(Cl)ccc2s1)n1nc(CC(=O)O)c2ccccc2c1=O (stereo unspecified) | 26 | inhibition [3]: 53%
15 | O=C(O)Cc1nn(Cc2nc3cccnc3s2)c(=O)c2ccccc12 | 10 | inhibition in vivo at 25 mg/kg (Rattus norvegicus [2]; dose 25 mg/kg, route oral): 83%
16 | O=C(O)Cc1nn(Cc2nc3ccccc3s2)c(=O)c2ccc([N+](=O)[O-])cc12 | 46 | inhibition [4]: inactive
17 | O=C(O)Cc1nn(Cc2nc3c(Cl)cccc3s2)c(=O)c2ccccc12 | 3.5 | inhibition [3]: 63%
18 | CC(c1nc2cc(C(F)(F)F)ccc2s1)n1nc(CC(=O)O)c2ccccc2c1=O (stereo unspecified) | 37 | 
19 | O=C(O)Cc1nn(Cc2nc3ccc(Br)cc3s2)c(=O)c2ccccc12 | 26 | 
20 | Cc1cccc2c(CC(=O)O)nn(Cc3nc4ccccc4s3)c(=O)c12 | 420 | inhibition [4]: inactive
21 | O=C(O)Cc1nn(Cc2nc3c(Cl)ccc(Cl)c3s2)c(=O)c2ccccc12 | 20 | inhibition in vivo at 25 mg/kg (Rattus norvegicus [2]; dose 25 mg/kg, route oral): 65%
22 | O=C(O)Cc1nn(Cc2ccc(Br)cc2F)c(=O)c2ccccc12 [PONALRESTAT] | 21 | 
23 | O=C(O)Cc1nn(-c2nc3ccccc3s2)c(=O)c2ccccc12 | > 1000 | 
24 | CC(C)c1ccc2c(=O)n(Cc3nc4ccccc4s3)nc(CC(=O)O)c2c1 | 110 | 
25 | O=C(O)Cc1nn(Cc2nc3cc(C(F)(F)F)c(O)cc3s2)c(=O)c2ccccc12 | 120 | inhibition (Rattus norvegicus [5]): inactive

Row | SMILES | IC50 [1] [nM] | also measured
26 | CN1C(C(=O)Nc2nc3ccccc3s2)=C(O)c2ccccc2S1(=O)=O | 5500 | 
27 | COc1cc2sc(Cn3nc(CC(=O)O)c4ccccc4c3=O)nc2cc1C(F)(F)F | 4300 | 
28 | O=C(O)Cc1nn(Cc2nc3ccccc3s2)c(=O)c2c(F)cccc12 | 30 | 
29 | COc1cc(C(F)(F)F)c2sc(Cn3nc(CC(=O)O)c4ccccc4c3=O)nc2c1 | 660 | 
30 | O=C(O)Cc1nn(CCc2nc3cc(C(F)(F)F)ccc3s2)c(=O)c2ccccc12 | 460 | 
31 | C[S+]([O-])c1ccc2sc(Cn3nc(CC(=O)O)c4ccccc4c3=O)nc2c1 (stereo unspecified) | 4300 | 
32 | CS(=O)(=O)c1ccc2sc(Cn3nc(CC(=O)O)c4ccccc4c3=O)nc2c1 | 1700 | inhibition [4]: inactive
33 | O=C(O)Cc1nn(Cc2nc3ccc(C(F)(F)F)cc3s2)c(=O)c2ccccc12 | 70 | inhibition [3]: 65%
34 | O=C(O)Cc1nn(Cc2nc3c(C(F)(F)F)cccc3s2)c(=O)c2ccccc12 | 25 | inhibition [3]: 61%
35 | Cc1ccc2nc(Cn3nc(CC(=O)O)c4ccccc4c3=O)sc2c1 | 320 | inhibition (Rattus norvegicus [5]): inactive
36 | Cc1ccc2sc(Cn3nc(CC(=O)O)c4ccccc4c3=O)nc2c1 | 26 | inhibition (Rattus norvegicus [5]): inactive
37 | COc1cc(OC)c2sc(Cn3nc(CC(=O)O)c4ccccc4c3=O)nc2c1 | 700 | 
38 | O=C(O)Cc1nn(Cc2nc3cccc(Cl)c3s2)c(=O)c2ccccc12 | 1 | inhibition [3]: 52%
39 | O=C(O)Cc1nn(Cc2nc3ccccc3s2)c(=O)c2ccc(Br)cc12 | 12 | 
40 | O=C(O)Cc1nn(Cc2nc3c(ccc4ccccc43)s2)c(=O)c2ccc(Cl)cc12 [listing 1 of 2 here] | 300 | 
41 | O=C(O)Cc1nn(Cc2nc3cc(O)ccc3s2)c(=O)c2ccccc12 | 41 | 
42 | Cc1ccc2nc(Cn3nc(CC(=O)O)c4ccccc4c3=O)sc2c1F | 320 | 
43 | O=C(O)Cc1nn(Cc2nc3ccccc3s2)c(=O)c2cc(Cl)ccc12 | 15 | 
44 | O=C(O)Cc1nn(Cc2nc3ccccc3s2)c(=O)c2cc(C(F)(F)F)ccc12 | 12 | inhibition [4]: inactive
45 | Cc1cccc2c(CC(=O)O)nn(Cc3nc4c(ccc5ccccc54)s3)c(=O)c12 | 42 | inhibition [4]: inactive
46 | O=C(O)Cc1nn(Cc2nc3cc(Cl)cc(F)c3s2)c(=O)c2ccccc12 | 5 | inhibition [3]: 63%
47 | COc1cc2nc(Cn3nc(CC(=O)O)c4ccccc4c3=O)sc2cc1F | 2300 | inhibition (Rattus norvegicus [5]): inactive
48 | CSc1ccc2sc(Cn3nc(CC(=O)O)c4ccccc4c3=O)nc2c1 | 60 | 
49 | O=C(O)Cc1nn(Cc2nc3cc(C(F)(F)F)cc(F)c3s2)c(=O)c2ccccc12 | 17 | 
50 | COc1cccc2sc(Cn3nc(CC(=O)O)c4ccccc4c3=O)nc12 | 100 | inhibition (Rattus norvegicus [5]): inactive

Row | SMILES | IC50 [1] [nM] | also measured
51 | O=C(O)Cc1nn(Cc2nc3cccc(C(F)(F)F)c3s2)c(=O)c2ccccc12 | 10 | inhibition [3]: 80%
52 | O=C(O)Cc1nn(Cc2nc3ccccc3s2)c(=O)c2ccc(Cl)cc12 | 34 | 
53 | O=C(O)Cc1nn(Cc2nc3cc(F)cc(C(F)(F)F)c3s2)c(=O)c2ccccc12 | 100 | inhibition [4]: inactive
54 | O=C(O)Cc1nn(Cc2nc3cc(C(F)(F)F)cc(Cl)c3s2)c(=O)c2ccccc12 | 94 | inhibition [3]: 26%
55 | O=C1NC(=O)C2(CN(Cc3nc4ccccc4s3)c3ccc(Cl)cc32)N1 (stereo unspecified) | 37 | 
56 | COc1ccc2c(CC(=O)O)nn(Cc3nc4ccccc4s3)c(=O)c2c1 | 26 | inhibition [4]: inactive
57 | O=C(O)Cc1nn(Cc2nc3c(O)cccc3s2)c(=O)c2ccccc12 | 100 | inhibition (Rattus norvegicus [5]): inactive
58 | O=C(O)Cc1nn(Cc2nc3c(F)c(F)ccc3s2)c(=O)c2ccccc12 | 10 | inhibition [3]: 82%
59 | O=C(O)Cc1nn(Cc2nc3cc(F)cc(Cl)c3s2)c(=O)c2ccccc12 | 6.2 | inhibition [3]: 58%
60 | O=C(O)Cc1nn(Cc2nc3ccccc3s2)c(=O)c2cc(Br)ccc12 | 690 | inhibition [3]: 42%
61 | O=C(O)Cc1nn(Cc2nc3c(ccc4ccccc43)s2)c(=O)c2ccc(Cl)cc12 [listing 2 of 2 here] | 350 | 
62 | Cc1ccc2c(=O)n(Cc3nc4ccccc4s3)nc(CC(=O)O)c2c1 | 27 | 
63 | O=C(O)Cc1nn(Cc2nc3cc(Cl)c(F)cc3s2)c(=O)c2ccccc12 | 110 | 
64 | O=C(O)Cc1nn(Cc2nc3ccccc3s2)c(=O)c2ccc(C(F)(F)F)cc12 | 18 | inhibition [4]: inactive
65 | O=C(O)Cc1nn(Cc2cccc(-c3nc4ccccc4s3)c2)c(=O)c2ccccc12 | 5700 | 
66 | COc1ccc2nc(Cn3nc(CC(=O)O)c4ccccc4c3=O)sc2c1 | 4200 | 
67 | O=C(O)Cc1nn(Cc2nc3ccccc3s2)c(=O)c2cc(Cl)c(Cl)cc12 | 10 | 
68 | O=C(O)Cc1nn(Cc2nc3c(ccc4ccccc43)s2)c(=O)c2ccccc12 | 510 | inhibition (Rattus norvegicus [5]): inactive
69 | O=C(O)Cc1nn(Cc2nc3ccccc3s2)c(=O)c2cc([N+](=O)[O-])ccc12 | 33 | 
70 | O=C(O)Cc1nn(Cc2nc3ccc(O)cc3s2)c(=O)c2ccccc12 | 1000 | 
71 | O=C(O)Cc1nn(Cc2nc3cc(Cl)ccc3s2)c(=O)c2ccccc12 | 7.1 | inhibition [3]: 73%
72 | O=C(O)Cc1nn(Cc2ccc(-c3nc4ccccc4s3)cc2)c(=O)c2ccccc12 | > 1000 | 
73 | O=C(O)Cc1nn(Cc2nc3ccc(Br)cc3s2)c(=O)c2cc(Cl)c(Cl)cc12 | 1800 | 
74 | COc1ccc2c(=O)n(Cc3nc4ccccc4s3)nc(CC(=O)O)c2c1 | 28 | 
75 | O=C(O)Cc1nn(Cc2nc3c(Cl)cc(Cl)cc3s2)c(=O)c2ccccc12 | 170 | 
